Assay results published in patent publication US9834525B2, “Inhibitors of paxillin function and related compositions and methods” (UNIVERSITY OF TENNESSEE RESEARCH FOUNDATION, priority 2015, dated 2017).
“Also recorded” adds a separate entry of the source.

How the values were obtained:
[1] = system: Pkd1 V/V mouse; test: Dermal microemulsion delivery to Pkd1 cystic mice (ADPKD model); assay type: in vivo; settings: dermal application as microemulsion, neonatal Pkd1 mice
Text: Paxillin is abnormally expressed in cystic epithelial cells in a mouse model of ADPKD. […] For this reason, paxillin can be considered to act as a “rheostat” that can be targeted to curtail cystogenesis.
The paxillin inhibitor compound (II-4) inactivates phosphorylation at Y118 on paxillin using retinal endothelial cells. Compound (II-4) has been formulated as a microemulsion for non-invasive delivery to neonatal Pkd1 non-cystic and cystic mice and it has been observed that renal cystic disease was attenuated as measured by total kidney-to-body weight ratio.
FIG. 4: Paxillin in ADPKD kidneys. (A) Immunoblot of total paxillin in protein lysates from non-cystic Pkd1^+/+ (n=5) and cystic Pkd1^V/V (n=3) mouse kidneys at post-natal day 11 after 8 days of dermal application of compound (II-4) microemulsion solution. GAPDH was used as a loading control. Densitometry of the bands normalized to GAPDH is shown for (B) paxillin and (C) phospho-paxillin (C). * P<0.005 difference between groups.

[2] = Microsomal stability, pooled mouse liver microsomes; assay type: in vitro ADME; settings: 1 μM, 37° C., 60 min
Procedure: (§1) Microsomal stability of compound (II-4) (1 μM) was assessed in pooled liver microsomes (human, mouse, and rat) (FIG. 7). Briefly, compound (II-4) was incubated in duplicate with microsomes at 37° C. Reactions contained microsomal protein in 100 mM potassium phosphate, 2 mM NADPH, 3 mM MgCl2, pH 7.4. NADPH was omitted to detect NADPH-free degradation. At 60 minutes, the reaction was stopped by adding ice-cold methanol containing internal standard. Samples were centrifuged to remove precipitated protein, and the supernatants were analyzed by LC/MS/MS to quantitate the remaining parent.
as §1, with “23).” for “7).”, “min,” for “minutes,”, “(+” for “containing”, “standard).” for “standard.”

[3] = biological target: T1, serotonin receptor 5-HT2B (Homo sapiens, UniProt P41595); test: Off-target counter screening, ExpresS Profile; assay type: binding; settings: 10 μM
T1 construct: purchased Eurofins, Cerep Panlabs ExpresS Profile
T1 sequence (P41595 whole entry): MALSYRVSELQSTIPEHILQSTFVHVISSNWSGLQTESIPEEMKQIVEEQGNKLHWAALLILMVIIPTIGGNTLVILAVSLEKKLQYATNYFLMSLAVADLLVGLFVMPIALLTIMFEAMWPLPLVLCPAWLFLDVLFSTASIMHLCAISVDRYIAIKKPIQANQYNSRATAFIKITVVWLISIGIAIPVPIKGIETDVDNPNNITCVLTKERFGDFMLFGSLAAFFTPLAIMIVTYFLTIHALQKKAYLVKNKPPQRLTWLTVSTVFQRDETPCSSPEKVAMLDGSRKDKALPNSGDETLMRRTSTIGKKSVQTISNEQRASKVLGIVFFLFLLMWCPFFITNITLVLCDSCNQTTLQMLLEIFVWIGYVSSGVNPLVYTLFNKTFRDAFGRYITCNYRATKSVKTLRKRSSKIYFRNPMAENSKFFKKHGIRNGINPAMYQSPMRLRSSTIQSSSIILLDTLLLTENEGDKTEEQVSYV
Procedure: (§2) Counter-screen assays to determine “off-target” effects are conducted at an early stage to mitigate toxicological risk of new chemical entities. Compound (II-4) (10 μM) counter screening was conducted against a wide variety of target receptors, enzymes, and ion channels using a serum-free cell-based assay, ExpresS Profile (Eurofins, Cerep Panlabs). Inhibition >50% is considered a “positive” interaction.

[4] = biological target: T2, melatonin-1 receptor (MT-1) (Homo sapiens, UniProt P48039); test: Off-target counter screening, ExpresS Profile; assay type: binding; settings: 10 μM
T2 construct: purchased Eurofins, Cerep Panlabs ExpresS Profile
T2 sequence (P48039 whole entry): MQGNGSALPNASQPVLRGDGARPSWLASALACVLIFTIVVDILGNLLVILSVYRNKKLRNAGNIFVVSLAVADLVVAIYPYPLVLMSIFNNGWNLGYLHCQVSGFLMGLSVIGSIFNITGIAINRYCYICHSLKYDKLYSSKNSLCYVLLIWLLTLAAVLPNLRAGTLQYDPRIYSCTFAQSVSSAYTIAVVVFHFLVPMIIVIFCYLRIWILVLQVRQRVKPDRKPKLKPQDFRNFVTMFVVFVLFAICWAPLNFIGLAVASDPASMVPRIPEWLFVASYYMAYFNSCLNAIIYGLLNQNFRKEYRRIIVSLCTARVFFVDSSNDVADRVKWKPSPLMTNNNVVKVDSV
Procedure: as §2

[5] = system: Mel 270 primary-UM cells; test: CFSE cellular proliferation, Mel 270; assay type: cell-based, human; settings: 96 hrs culture, 1 μM for the last 24 hrs
Procedure: Harvested cells were resuspended at a concentration of 1.0×10^6 cells/mL in warm PBS/1% FBS. Cells were labeled with […] (Invitrogen) for 5 minutes at 37° C. then quenched on cold growth media (final volume 20 mL) for 10 minutes, twice. Cultured unlabeled cells were used as controls.
To test the hypothesis that inhibition of paxillin will reduce cellular proliferation UM cell lines were labeled with carboxyfluorescein succunimidyl ester (CFSE), a cell tracking dye, and cultured for 96 hrs. A group of cells received treatment with compound (II-4) for the last 24 hours. Maximum CFSE fluorescence was controlled using labeled cells prior culture −0 hr. Negative control was established using unlabeled cells cultured in parallel. Histograms in FIG. 15D show 96 hrs cultured cells divided with a 1-log shift or reduction in CFSE intensity. […] Cell proliferation was not affected in the 92.1 cell line. […]
FIG. 15: The paxillin inhibitor Compound (II-4) selectively affects cellular proliferation of primary UM cells that become metastatic. […] Unlabeled cells were used to control fluorescence. […] B. Quantitation of experiment +/−SD including primary UM that becomes metastatic (Mel 270), metastatic (OMM 2.1) and primary (92.1) UM cells. *P=0.0007 and **P=0.0005. […] Quantitation of VLA-4 protein levels +/−SD from n=3. […]

[6] = system: UM tumor cell lines; test: Total cell numbers in UM cultures; assay type: cell-based, human
[7] = biological target: T3, CYP3A4 (Homo sapiens, UniProt P08684); test: CYP-450 interaction study in pooled human liver microsomes, CYP3A4; assay type: in vitro ADME; settings: 1 μM
T3 construct: from tissue; host or cells: pooled human liver microsomes
T3 sequence (P08684 whole entry): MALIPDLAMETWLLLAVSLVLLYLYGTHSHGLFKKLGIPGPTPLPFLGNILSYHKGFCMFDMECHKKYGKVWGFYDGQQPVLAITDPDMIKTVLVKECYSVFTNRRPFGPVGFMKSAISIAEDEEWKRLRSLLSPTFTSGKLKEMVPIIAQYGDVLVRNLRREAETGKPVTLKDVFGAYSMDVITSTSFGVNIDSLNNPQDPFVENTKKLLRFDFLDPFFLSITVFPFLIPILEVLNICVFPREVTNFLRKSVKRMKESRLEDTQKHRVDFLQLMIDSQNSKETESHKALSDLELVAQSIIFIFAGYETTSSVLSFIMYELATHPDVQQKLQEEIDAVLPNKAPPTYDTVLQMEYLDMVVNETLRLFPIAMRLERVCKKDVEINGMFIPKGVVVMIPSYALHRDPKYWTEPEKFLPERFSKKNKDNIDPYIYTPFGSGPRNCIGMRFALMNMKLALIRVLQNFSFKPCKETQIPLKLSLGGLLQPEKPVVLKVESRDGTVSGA
Procedure: CYP-450 interaction studies were conducted in pooled human liver microsomes (FIG. 8). CYP-450 inhibition (%) by compound (II-4) (1 μM) was compared to control inhibitors (1 μM) for the most common CYP-450 isoforms, CYP3A4, CYP2C9, CYP2D6, CYP2C19, and CYP1A2.
CYP-450 interaction studies were conducted in pooled human liver microsomes (FIG. 24). CYP-450 inhibition (%) by compound (II-4) (1 μM) was compared to control inhibitors (1 μM) for the most common CYP-450 isoforms, 3A4, 2C9, 2D6, 2C19, and 1A2.

[8] = Microsomal stability, pooled human liver microsomes; assay type: in vitro ADME
Procedure: as §1
as §1, with “23).” for “7).”, “min,” for “minutes,”, “(+” for “containing”, “standard).” for “standard.”

- microsomal stability (metabolism by cytochrome P-450 enzymes) [2]: rapidly metabolized
- off-target interaction, 5-HT2B (inhibition >50% considered positive) [3]: possible binding targets
- off-target interaction, MT-1 (inhibition >50% considered positive) [4]: possible binding targets
- susceptibility to P-450 interaction in human microsomes compared to rodent ([8]; human vs rodent microsomes): less susceptible
- microsomal stability (metabolism by cytochrome P-450 enzymes) ([8]; human, 1 μM, 37° C., 60 min): rapidly metabolized
Compound: COc1cc(C2OC(=O)Nc3c2ccc2ccccc32)cc(OC)c1OC (stereo not drawn) [compound II-4]
- renal cystic disease / cystic disease progression (total kidney-to-body weight ratio) [1]: functional reduction in cystic disease progression; also recorded: attenuated
- cell proliferation (CFSE) [5]: caused a reduction in cell proliferation
- total cell numbers compared to untreated cultures [6]: reduction in total cell numbers
- CYP-450 inhibition, CYP3A4 [7]: lack of significant inhibition; also recorded: lacks significant inhibition
